Test results reported in ChEMBL document CHEMBL2396625 (Bioorg Med Chem Lett, 2013).

Assays:
[1] = Cytotoxicity against human DLD1 cells overexpressing PRL3 assessed as cell viability at 10 ug/ml after 24 hrs by WST-1 assay relative to control; format: cell-based; conditions: DLD-1 cells overexpressing PRL3, read-out: Activity
DLD-1 = assay: Antimigratory activity against human DLD1 cells overexpressing PRL3 at 10 ug/ml after 20 hrs by crystal violet staining-based light microscopic analysis relative to control; format: functional; conditions: DLD-1, 20 h
[2] = target: Protein tyrosine phosphatase type IVA 3 (Homo sapiens, UniProt O75365); assay: Inhibition of human His6-tagged full length PRL3 assessed as inhibition of DiFMUP dephosphorylation at 5 ug/ml relative to control
Protein tyrosine phosphatase type IVA 3, sequence (O75365 whole entry): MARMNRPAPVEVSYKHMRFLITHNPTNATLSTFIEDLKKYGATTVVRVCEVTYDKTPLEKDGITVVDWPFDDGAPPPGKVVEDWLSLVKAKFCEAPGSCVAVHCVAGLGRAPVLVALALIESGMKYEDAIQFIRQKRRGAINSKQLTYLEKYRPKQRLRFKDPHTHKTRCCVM

SMILES	inhibition [2] [%]	viability at 24 h, 10 ug/ml [1] [%]	inhibition at 10 µg/mL (DLD-1) [%]
O=C1NC(=S)S/C1=C\C=C\c1ccccc1	37.4	96.6	81
O=C1NC(=S)S/C1=C\C=C\c1ccccc1OCc1ccccc1	49.5	87.9	65
O=C1NC(=S)S/C1=C\C=C\c1cccnc1	47.1	105	45
O=C1NC(=O)/C(=C/C=C/c2ccccc2OCc2ccccc2Br)S1	22.5	37.7	50
O=C1NC(=S)S/C1=C\C=C\c1ccccc1NC(=O)c1ccccc1	35.2	97.1	68
O=C1NC(=S)S/C1=C\C=C\c1ccccc1OS(=O)(=O)c1ccccc1	64.2	83.1	80
O=C1NC(=S)S/C1=C\C=C\c1ccccc1OCc1ccccc1C(F)(F)F	40.8	41.5	80
O=C1NC(=S)S/C1=C\C=C\c1ccccc1O	51.9	96.3	65

Continued, in another order:

inhibition [2] [%]	SMILES	viability at 24 h, 10 ug/ml [1] [%]	inhibition at 10 µg/mL (DLD-1) [%]
52.8	Cc1ccccc1COc1ccccc1/C=C/C=C1\SC(=S)NC1=O	75.5	73
39.4	O=C1NC(=S)S/C1=C\C=C\c1ccccc1OCc1ccncc1	96.5	62
41.7	COc1ccccc1/C=C/C=C1\SC(=S)NC1=O	98.8	69
53.9	O=C1NC(=S)S/C1=C\C=C\c1ccccc1Cl	81.9	80
30.6	O=C1NC(=S)S/C1=C\C=C\c1ccccc1OC(=O)c1ccccc1	99.2	40
40.3	O=C1NC(=S)S/C1=C\C=C\c1cc(Br)ccc1OCc1ccccc1Br	72.3	71
52.9	COc1cccc(COc2ccccc2/C=C/C=C2\SC(=S)NC2=O)c1	87.1	82
63.1	O=C1NC(=S)S/C1=C\C=C\c1ccccc1OCc1ccccc1Br	78.8	78
